Data: patent publication US12582657B2, “Combination therapy including a KRAS G12C inhibitor and one or more additional pharmaceutically active agents for the treatment of cancers” (Amgen Inc., priority 2018, dated 2026)

How the values were obtained:
[1] = system: ERK1/2 phosphorylation in NCI-H358 tumors; test: Tumor pharmacodynamic assay (p-ERK, MSD immunoassay); settings: Mus musculus, NCI-H358, po, 2 h, read-out: inhibition of p-ERK, reduction compared to control
MIA PaCa-2 cells = test: Spheroid cell viability assay (CellTiter-Glo 3D); type: cell-based; settings: Homo sapiens; MIA PaCa-2, pancreas, KRAS p.G12C homozygous; 72-hour treatment, spheroid culture
Description: (§1) For spheroid viability assays, 2.5-4.0E+04 cells were seeded per well in 96-well spheroid microplates (Corning) and incubated at 37° C., 5% CO2 for 24 hours. The same procedure was followed as described above, except viability was measured using a CellTiter-Glo® 3D Cell Viability Assay kit (Promega) according to the manufacturer's protocol.

NCI-H358 cells = test: Spheroid cell viability assay (CellTiter-Glo 3D); type: cell-based; settings: Homo sapiens; NCI-H358, lung, KRAS p.G12C heterozygous; 72-hour treatment, spheroid culture
Description: as §1

NCI-H1373 cells = test: Spheroid cell viability assay (CellTiter-Glo 3D); type: cell-based; settings: Homo sapiens; NCI-H1373, lung, KRAS p.G12C homozygous; 72-hour treatment, spheroid culture
Description: as §1

[2] = system: MAPK, EGFR, AKT, S6, caspase-3 signaling in NCI-H358 and MIA PaCa-2; test: Western blots of cellular signaling nodes; type: cell-based, human; settings: 0.1 μM; both lines
From the text: This shifted species accumulated with increasing time and dose and was consistent with downstream inhibition of the MAPK pathway (i.e. p-MEK1/2 and p-ERK1/2) in both cell lines (FIGS. 41A and 41B).

C=CC(=O)N1CCN(c2nc(=O)n(-c3c(C)ccnc3C(C)C)c3nc(-c4c(O)cccc4F)c(F)cc23)[C@@H](C)C1 (atropisomer, axis not shown) [AMG 510, 6-fluoro-7-(2-fluoro-6-hydroxyphenyl)-1-(4-methyl-2-(2-propanyl)-3-pyridinyl)-4-((2S)-2-methyl-4-(2-propenoyl)-1-piperazinyl)pyrido[2,3-d]pyrimidin-2(1H)-one]
inhibition at 100 mg/kg [1]: 83%
IC50 (MIA PaCa-2 cells): 1 ± 1 nM
IC50 (NCI-H358 cells): 3 ± 2 nM
IC50 (NCI-H1373 cells): 5 ± 2 nM
duration of effects on MAPK and EGFR [2]: > 24 h
onset of effects on MAPK and EGFR [2]: < 2 h
time at which p-S6 and caspase-cleavage effects emerged [2]: 8 to 16 h
